# Test results: PubChem BioAssay (NCI)
#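 How tested: cells in 96-well plates exposed to compound for 48 hours at five concentrations. Definition used: TGI = concentration required for complete inhibition of growth.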
# Columns and labels:
# Test in all cases: NCI anticancer screen, dose series, 48 h
# HCC-2998 colon = tested on: HCC-2998 colon
# IGROV1 ovarian = tested on: IGROV1 ovarian
# NCI-H226 lung = tested on: NCI-H226 lung
# HOP-92 NSCLC = tested on: HOP-92 NSCLC
# DLD-1 colon = tested on: DLD-1 colon
# MOLT-4 leukemia = tested on: MOLT-4 leukemia
# SK-OV-3 ovarian = tested on: SK-OV-3 ovarian
# M19-MEL melanoma = tested on: M19-MEL melanoma
# KM12 colon = tested on: KM12 colon
# DMS 273 small cell lung = tested on: DMS 273 small cell lung
# 786-0 renal = tested on: 786-0 renal
# A549 NSCLC = tested on: A549 NSCLC
# OVCAR-4 ovarian = tested on: OVCAR-4 ovarian
# SK-MEL-28 melanoma = tested on: SK-MEL-28 melanoma
# NCI-H522 lung = tested on: NCI-H522 lung
# RXF 393 renal = tested on: RXF 393 renal
# SK-MEL-2 melanoma = tested on: SK-MEL-2 melanoma
# OVCAR-5 ovarian = tested on: OVCAR-5 ovarian
# NCI-H460 lung = tested on: NCI-H460 lung
# XF 498 CNS = tested on: XF 498 CNS
# SNB-75 CNS = tested on: SNB-75 CNS
# SF-268 CNS = tested on: SF-268 CNS
# HL-60(TB) leukemia = tested on: HL-60(TB) leukemia
# CAKI-1 renal = tested on: CAKI-1 renal
# LXFL 529 NSCLC = tested on: LXFL 529 NSCLC
# UO-31 renal = tested on: UO-31 renal
# COLO 205 colon = tested on: COLO 205 colon
# OVCAR-3 ovarian = tested on: OVCAR-3 ovarian
# NCI-H23 lung = tested on: NCI-H23 lung
# MALME-3M melanoma = tested on: MALME-3M melanoma
# UACC-257 melanoma = tested on: UACC-257 melanoma
# SNB-19 CNS = tested on: SNB-19 CNS
# HT29 colon = tested on: HT29 colon
# RXF-631 renal = tested on: RXF-631 renal
# ACHN renal = tested on: ACHN renal
# SK-MEL-5 melanoma = tested on: SK-MEL-5 melanoma
# TK-10 renal = tested on: TK-10 renal
# U251 CNS = tested on: U251 CNS
# SN12C renal = tested on: SN12C renal
# HCT-116 colon = tested on: HCT-116 colon
# SF-539 CNS = tested on: SF-539 CNS
# HCT-15 colon = tested on: HCT-15 colon
# UACC-62 melanoma = tested on: UACC-62 melanoma
# OVCAR-8 ovarian = tested on: OVCAR-8 ovarian
# EKVX NSCLC = tested on: EKVX NSCLC
# M14 melanoma = tested on: M14 melanoma
# SW-620 colon = tested on: SW-620 colon
# KM20L2 colon = tested on: KM20L2 colon
# SF-295 CNS = tested on: SF-295 CNS
# A498 renal = tested on: A498 renal
# RPMI-8226 leukemia = tested on: RPMI-8226 leukemia
# K-562 leukemia = tested on: K-562 leukemia
# HOP-62 NSCLC = tested on: HOP-62 NSCLC
# CCRF-CEM leukemia = tested on: CCRF-CEM leukemia
# LOX IMVI melanoma = tested on: LOX IMVI melanoma
# DMS 114 small cell lung = tested on: DMS 114 small cell lung
# SR leukemia = tested on: SR leukemia
# SNB-78 CNS = tested on: SNB-78 CNS
# HOP-18 NSCLC = tested on: HOP-18 NSCLC
# MDA-MB-231 breast = tested on: MDA-MB-231 breast
# HS 578T breast = tested on: HS 578T breast
# BT-549 breast = tested on: BT-549 breast
# NCI/ADR-RES ovarian = tested on: NCI/ADR-RES ovarian
# MDA-MB-435 = tested on: MDA-MB-435
# MDA-N = tested on: MDA-N
# DU-145 prostate = tested on: DU-145 prostate
# T-47D breast = tested on: T-47D breast
# PC-3 prostate = tested on: PC-3 prostate
# MCF7 breast = tested on: MCF7 breast
smiles,measurement,setting,value
COC(=O)CC(C(C(=O)OC)C(=O)OC)N1C(=O)OCC1c1ccccc1 (configuration not stated),TGI,HCC-2998 colon,> 100 µM
same,TGI,IGROV1 ovarian,> 100 µM
same,TGI,NCI-H226 lung,> 100 µM
same,TGI,HOP-92 NSCLC,> 100 µM
same,TGI,DLD-1 colon,> 100 µM
same,TGI,MOLT-4 leukemia,> 100 µM
same,TGI,SK-OV-3 ovarian,> 100 µM
same,TGI,M19-MEL melanoma,> 100 µM
same,TGI,KM12 colon,> 100 µM
same,TGI,DMS 273 small cell lung,> 100 µM
same,TGI,786-0 renal,> 100 µM
same,TGI,A549 NSCLC,> 100 µM
same,TGI,OVCAR-4 ovarian,> 100 µM
same,TGI,SK-MEL-28 melanoma,> 100 µM
same,TGI,NCI-H522 lung,> 100 µM
same,TGI,RXF 393 renal,> 100 µM
same,TGI,SK-MEL-2 melanoma,> 100 µM
same,TGI,OVCAR-5 ovarian,> 100 µM
same,TGI,NCI-H460 lung,> 100 µM
same,TGI,XF 498 CNS,> 100 µM
same,TGI,SNB-75 CNS,> 100 µM
same,TGI,SF-268 CNS,> 100 µM
same,TGI,HL-60(TB) leukemia,> 100 µM
same,TGI,CAKI-1 renal,> 100 µM
same,TGI,LXFL 529 NSCLC,> 100 µM
same,TGI,UO-31 renal,> 100 µM
same,TGI,COLO 205 colon,> 100 µM
same,TGI,OVCAR-3 ovarian,> 100 µM
same,TGI,NCI-H23 lung,> 100 µM
same,TGI,MALME-3M melanoma,> 100 µM
same,TGI,UACC-257 melanoma,> 100 µM
same,TGI,SNB-19 CNS,> 100 µM
same,TGI,HT29 colon,> 100 µM
same,TGI,RXF-631 renal,> 100 µM
same,TGI,ACHN renal,> 100 µM
same,TGI,SK-MEL-5 melanoma,> 100 µM
same,TGI,TK-10 renal,> 100 µM
same,TGI,U251 CNS,> 100 µM
same,TGI,SN12C renal,> 100 µM
same,TGI,HCT-116 colon,> 100 µM
same,TGI,SF-539 CNS,> 100 µM
same,TGI,HCT-15 colon,> 100 µM
same,TGI,UACC-62 melanoma,> 100 µM
same,TGI,OVCAR-8 ovarian,> 100 µM
same,TGI,EKVX NSCLC,> 100 µM
same,TGI,M14 melanoma,> 100 µM
same,TGI,SW-620 colon,> 100 µM
same,TGI,KM20L2 colon,> 100 µM
same,TGI,SF-295 CNS,> 100 µM
same,TGI,A498 renal,> 100 µM
same,TGI,RPMI-8226 leukemia,> 100 µM
same,TGI,K-562 leukemia,> 100 µM
same,TGI,HOP-62 NSCLC,> 100 µM
same,TGI,CCRF-CEM leukemia,> 100 µM
same,TGI,LOX IMVI melanoma,> 100 µM
N#CC1(Cc2ccc(N)cc2)c2ccccc2C=CN1C(=O)c1ccccc1 (configuration not stated),TGI,HCC-2998 colon,> 100 µM
same,TGI,IGROV1 ovarian,> 100 µM
same,TGI,NCI-H226 lung,> 100 µM
same,TGI,HOP-92 NSCLC,> 100 µM
same,TGI,DMS 114 small cell lung,> 100 µM
same,TGI,DLD-1 colon,> 100 µM
same,TGI,MOLT-4 leukemia,> 100 µM
same,TGI,SK-OV-3 ovarian,> 100 µM
same,TGI,M19-MEL melanoma,> 100 µM
same,TGI,KM12 colon,> 100 µM
same,TGI,DMS 273 small cell lung,> 100 µM
same,TGI,786-0 renal,> 100 µM
same,TGI,A549 NSCLC,> 100 µM
same,TGI,SK-MEL-28 melanoma,> 100 µM
same,TGI,NCI-H522 lung,> 100 µM
same,TGI,RXF 393 renal,> 100 µM
same,TGI,SK-MEL-2 melanoma,> 100 µM
same,TGI,OVCAR-5 ovarian,> 100 µM
same,TGI,XF 498 CNS,> 100 µM
same,TGI,SNB-75 CNS,> 100 µM
same,TGI,SF-268 CNS,> 100 µM
same,TGI,HL-60(TB) leukemia,44 µM
same,TGI,LXFL 529 NSCLC,> 100 µM
same,TGI,UO-31 renal,84.2 µM
same,TGI,COLO 205 colon,85.7 µM
same,TGI,OVCAR-3 ovarian,> 100 µM
same,TGI,SR leukemia,94.3 µM
same,TGI,NCI-H23 lung,> 100 µM
same,TGI,MALME-3M melanoma,> 100 µM
same,TGI,UACC-257 melanoma,> 100 µM
same,TGI,SNB-19 CNS,> 100 µM
same,TGI,HT29 colon,> 100 µM
same,TGI,ACHN renal,> 100 µM
same,TGI,SNB-78 CNS,> 100 µM
same,TGI,SK-MEL-5 melanoma,47.2 µM
same,TGI,TK-10 renal,> 100 µM
same,TGI,U251 CNS,> 100 µM
same,TGI,SN12C renal,> 100 µM
same,TGI,HCT-116 colon,> 100 µM
same,TGI,SF-539 CNS,> 100 µM
same,TGI,UACC-62 melanoma,> 100 µM
same,TGI,OVCAR-8 ovarian,> 100 µM
same,TGI,EKVX NSCLC,> 100 µM
same,TGI,M14 melanoma,> 100 µM
same,TGI,SW-620 colon,> 100 µM
same,TGI,HOP-18 NSCLC,> 100 µM
same,TGI,KM20L2 colon,> 100 µM
same,TGI,SF-295 CNS,> 100 µM
same,TGI,A498 renal,> 100 µM
same,TGI,RPMI-8226 leukemia,> 100 µM
same,TGI,K-562 leukemia,> 100 µM
same,TGI,HOP-62 NSCLC,> 100 µM
same,TGI,CCRF-CEM leukemia,> 100 µM
same,TGI,LOX IMVI melanoma,> 100 µM
Cc1cc(N(CCOS(C)(=O)=O)CCOS(C)(=O)=O)ccc1C=Nc1ccc(-c2nc(Cc3ccccc3)sc2C)cc1,TGI,HCC-2998 colon,15.7 µM
same,TGI,IGROV1 ovarian,28 µM
same,TGI,NCI-H226 lung,22.6 µM
same,TGI,HOP-92 NSCLC,25.4 µM
same,TGI,DMS 114 small cell lung,27.7 µM
same,TGI,DLD-1 colon,31.9 µM
same,TGI,MOLT-4 leukemia,22.4 µM
same,TGI,SK-OV-3 ovarian,4.56 µM
same,TGI,M19-MEL melanoma,24.3 µM
same,TGI,KM12 colon,34 µM
same,TGI,DMS 273 small cell lung,21.7 µM
same,TGI,MDA-MB-231 breast,26.9 µM
same,TGI,786-0 renal,15.1 µM
same,TGI,HS 578T breast,34.6 µM
same,TGI,A549 NSCLC,21.6 µM
same,TGI,OVCAR-4 ovarian,36.8 µM
same,TGI,SK-MEL-28 melanoma,35.3 µM
same,TGI,NCI-H522 lung,0.648 µM
same,TGI,RXF 393 renal,4.92 µM
same,TGI,SK-MEL-2 melanoma,34.9 µM
same,TGI,OVCAR-5 ovarian,37.8 µM
same,TGI,NCI-H460 lung,5.03 µM
same,TGI,XF 498 CNS,9.12 µM
same,TGI,SNB-75 CNS,12.3 µM
same,TGI,BT-549 breast,34.8 µM
same,TGI,SF-268 CNS,20.4 µM
same,TGI,HL-60(TB) leukemia,28.9 µM
same,TGI,CAKI-1 renal,9.2 µM
same,TGI,LXFL 529 NSCLC,> 50.3 µM
same,TGI,UO-31 renal,18.3 µM
same,TGI,NCI/ADR-RES ovarian,47.8 µM
same,TGI,COLO 205 colon,4.76 µM
same,TGI,OVCAR-3 ovarian,19.6 µM
same,TGI,SR leukemia,18.5 µM
same,TGI,MDA-MB-435,26.6 µM
same,TGI,NCI-H23 lung,17.8 µM
same,TGI,MDA-N,29 µM
same,TGI,DU-145 prostate,11.7 µM
same,TGI,MALME-3M melanoma,26.8 µM
same,TGI,UACC-257 melanoma,28.4 µM
same,TGI,SNB-19 CNS,43.9 µM
same,TGI,HT29 colon,21.4 µM
same,TGI,ACHN renal,3.51 µM
same,TGI,SNB-78 CNS,81.2 µM
same,TGI,SK-MEL-5 melanoma,26.7 µM
same,TGI,TK-10 renal,33.9 µM
same,TGI,U251 CNS,22.8 µM
same,TGI,T-47D breast,23.8 µM
same,TGI,SN12C renal,26.3 µM
same,TGI,HCT-116 colon,35 µM
same,TGI,SF-539 CNS,14.8 µM
same,TGI,PC-3 prostate,22.1 µM
same,TGI,HCT-15 colon,35.2 µM
same,TGI,UACC-62 melanoma,16.7 µM
same,TGI,OVCAR-8 ovarian,41.8 µM
same,TGI,EKVX NSCLC,15.8 µM
same,TGI,M14 melanoma,20.7 µM
same,TGI,SW-620 colon,45.4 µM
same,TGI,HOP-18 NSCLC,23.4 µM
same,TGI,KM20L2 colon,21.2 µM
same,TGI,SF-295 CNS,32.4 µM
same,TGI,MCF7 breast,49.7 µM
same,TGI,A498 renal,6.39 µM
same,TGI,RPMI-8226 leukemia,31.8 µM
same,TGI,K-562 leukemia,65.5 µM
same,TGI,HOP-62 NSCLC,20.8 µM
same,TGI,CCRF-CEM leukemia,24.3 µM
same,TGI,LOX IMVI melanoma,20.2 µM
